Results as given in ChEMBL document CHEMBL4024733, “An unusual spinaceamine-bearing pregnane from a soft coral Scleronephthya sp. inhibits the migration of tumor cells” (Bioorg Med Chem Lett, 2017).

What was measured:
Type in all cases: functional, cell-based
B16 [1] = assay: Antimigratory activity against mouse B16 cells after 24 hrs by crystal violet staining based inverted microscopic method
B16 [2] = assay: Antimigratory activity against mouse B16 cells assessed as inhibition of VEGF mRNA level after 24 hrs by SYBR staining based real-time qPCR assay; settings: B16, 24 h
A549 = assay: Antimigratory activity against human A549 cells after 24 hrs by crystal violet staining based inverted microscopic method
B16 [3] = assay: Antimigratory activity against mouse B16 cells assessed as inhibition of MMP9 mRNA level after 24 hrs by SYBR staining based real-time qPCR assay; settings: B16, 24 h
B16 [4] = assay: Antimigratory activity against mouse B16 cells assessed as inhibition of MMP2 mRNA level after 24 hrs by SYBR staining based real-time qPCR assay; settings: B16, 24 h
B16 [5] = assay: Antimigratory activity against mouse B16 cells assessed as decrease in IL-6 mRNA level by SYBR staining based real-time qPCR assay
B16 [6] = assay: Antimigratory activity against mouse B16 cells assessed as decrease in TGFbeta mRNA level by SYBR staining based real-time qPCR assay
B16 [7] = assay: Antimigratory activity against mouse B16 cells assessed as decrease in IL-1beta mRNA level by SYBR staining based real-time qPCR assay
B16 [8] = assay: Antimigratory activity against mouse B16 cells assessed as decrease in TNFalpha mRNA level by SYBR staining based real-time qPCR assay

SMILES	Activity (B16 [1])	IC50 (B16 [2]) [µM]	Activity (A549)	IC50 (B16 [3]) [µM]	IC50 (B16 [4]) [µM]	Activity (B16 [5])	Activity (B16 [6])	Activity (B16 [7])	Activity (B16 [8])
C=C[C@H]1CC[C@H]2[C@@H]3CC[C@H]4CC(=O)/C(=C5\NC=Cc6nc[nH]c65)C(=O)[C@]4(C)[C@H]3CC[C@]12C	Dose-dependent effect	7.6	Dose-dependent effect	12.4	5.8	Dose-dependent effect	Dose-dependent effect	Dose-dependent effect	Dose-dependent effect
C=C[C@H]1CC[C@H]2[C@@H]3CC[C@H]4CC(=O)/C(=C5\NCCc6nc[nH]c65)C(=O)[C@]4(C)[C@H]3CC[C@]12C	Dose-dependent effect	8.4	Dose-dependent effect	5.3	6.6	Dose-dependent effect	Dose-dependent effect	Dose-dependent effect	Dose-dependent effect
